The source of these data is US9556165B2 (priority 2012, dated 2017).

Molecules are shown by their SMILES. Converted amounts (≈) assume the structure as drawn.

Among the test systems are strain 20; strain 21; strain 19.
Holding throughout (experiment): MIC determination, broth microdilution (CLSI)
Common to all, as to format: cell-based
A general note: Broth dilution looks for growth in wells or tubes with falling amounts of substance.

Test [1] concerns P. aeruginosa 2297-con (AmpC derepressed). The note with it: Pseudomonas aeruginosa, read-out: strain 8 MIC, strain 8.
Another test relates to E. coli ATCC25922. Particulars: Escherichia coli, ATCC25922, strain 1.
A further test relates to M. morganii 126/3048. The note with it: Morganella morganii, 126/3048, strain 5.
The subject of another test is B. fragilis 6688. Particulars: Bacteroides fragilis, 6688, strain 15; read-out: strain 15 MIC.
A further test deals with E. cloacae 34654. The note with it: Enterobacter cloacae, 34654, strain 3.
A further test has as its system H. influenzae ATCC 49247. Particulars: Haemophilus influenzae, ATCC49247, strain 13; read-out: strain 13 MIC.
Another test concerns P. aeruginosa PAO1. The note with it: Pseudomonas aeruginosa, PAO1, strain 6.
The next test has as its system S. maltophilia ICB7569. The note with it: Stenotrophomonas maltophilia, ICB7569, strain 10.
The next test deals with S. pneumoniae 113. Particulars: Streptococcus pneumoniae, 113, strain 14; read-out: strain 14 MIC.
For a further test, the system named is E. coli J62. The note with it: Escherichia coli, J62, strain 17; read-out: strain 17 MIC.
The subject of another test is M. catarrhalis ICB489. Particulars: Moraxella catarrhalis, ICB489, strain 12.
The subject of test [2] is P. aeruginosa 2297 (AmpC wt). The note with it: Pseudomonas aeruginosa, strain 7.
Another test has as its system K. pneumoniae 60. Particulars: Klebsiella pneumoniae, 60, strain 2.
In another test the test system is E. coli J62-TEM-3. The note with it: Escherichia coli, J62TEM3, read-out: strain 18 MIC, strain 18.
The subject of another test is A. baumannii ATCC15308. Particulars: Acinetobacter baumannii, ATCC15308, strain 9.
In the next test the test system is C. freundii K21/3034. Particulars: Citrobacter freundii, K21/3034, strain 4.
The next test relates to S. aureus 133. The note with it: Staphylococcus aureus, 133, strain 11; read-out: strain 11 MIC.

As to `C[C@H]1[C@H](NC(=O)/C(=N\OC(C)(C)COc2ccc(C(=N)N)cc2)c2csc(N)n2)C(=O)N1S(=O)(=O)O` [Example 18, (2S,3S)-3-{[(2Z)-2-(2-Amino-1,3-thiazol-4-yl)-2-({[1-(4-carbamimidoylphenoxy)-2-methylpropan-2-yl]oxy}imino)acetyl]amino}-2-methyl-4-oxoazetidine-1-sulfonic acid], the MIC stood at 16 µg/mL (≈ 29.7 µM) in test [1]; 1 µg/mL (≈ 1.85 µM) against E. coli ATCC25922; 2 µg/mL (≈ 3.71 µM) in the test on strain 20; 1 µg/mL (≈ 1.85 µM) against M. morganii 126/3048; 4 µg/mL (≈ 7.41 µM) with B. fragilis 6688; 2 µg/mL (≈ 3.71 µM) against E. cloacae 34654. For the same molecule, the MIC with H. influenzae ATCC 49247 is 0.5 µg/mL (≈ 0.927 µM); against P. aeruginosa PAO1, 4 µg/mL (≈ 7.41 µM); against S. maltophilia ICB7569, 16 µg/mL (≈ 29.7 µM); with strain 21, 2 µg/mL (≈ 3.71 µM); in the test with S. pneumoniae 113, 4 µg/mL (≈ 7.41 µM); with E. coli J62, 2 µg/mL (≈ 3.71 µM). For the same molecule, the MIC with M. catarrhalis ICB489 was found to be 0.5 µg/mL (≈ 0.927 µM); in the test with strain 19 it was 2 µg/mL (≈ 3.71 µM); in test [2], 4 µg/mL (≈ 7.41 µM); in the test on K. pneumoniae 60, 1 µg/mL (≈ 1.85 µM); in the test on E. coli J62-TEM-3, 4 µg/mL (≈ 7.41 µM); in the test on A. baumannii ATCC15308 it was 16 µg/mL (≈ 29.7 µM). In addition, the MIC in the test on C. freundii K21/3034 turned out to be 1 µg/mL (≈ 1.85 µM); in the test on S. aureus 133, 0.25 µg/mL (≈ 0.463 µM).

With `C[C@H]1[C@H](NC(=O)/C(=N\OCCOc2ccc(C(=N)N)c(O)c2)c2csc(N)n2)C(=O)N1S(=O)(=O)O` [Example 2, (2S,3S)-3-{[(2Z)-2-(2-Amino-1,3-thiazol-4-yl)-2-{[2-(4-carbamimidoyl-3-hydroxyphenoxy)ethoxy]imino}acetyl]amino}-2-methyl-4-oxoazetidine-1-sulfonic acid], the MIC is 0.125 µg/mL (≈ 0.237 µM) against E. coli ATCC25922; 0.125 µg/mL (≈ 0.237 µM) against strain 20; at most 0.063 µg/mL in the test with M. morganii 126/3048; 16 µg/mL (≈ 30.3 µM) in the test on B. fragilis 6688; 0.25 µg/mL (≈ 0.474 µM) with E. cloacae 34654; 0.5 µg/mL (≈ 0.948 µM) in the test on H. influenzae ATCC 49247. The MIC in the test with P. aeruginosa PAO1 was 2 µg/mL (≈ 3.79 µM); with S. maltophilia ICB7569 it was 0.125 µg/mL (≈ 0.237 µM); in the test with strain 21, 0.25 µg/mL (≈ 0.474 µM); in the test with S. pneumoniae 113, 16 µg/mL (≈ 30.3 µM); in the test on E. coli J62 it was 0.25 µg/mL (≈ 0.474 µM); with M. catarrhalis ICB489 it was at most 0.063 µg/mL. The MIC was found to be 0.125 µg/mL (≈ 0.237 µM) against strain 19; 0.125 µg/mL (≈ 0.237 µM) with K. pneumoniae 60; 32 µg/mL (≈ 60.7 µM) with E. coli J62-TEM-3; 4 µg/mL (≈ 7.58 µM) with A. baumannii ATCC15308; 0.125 µg/mL (≈ 0.237 µM) in the test on C. freundii K21/3034; 0.25 µg/mL (≈ 0.474 µM) with S. aureus 133.

For the molecule `C[C@@H]1[C@H](NC(=O)/C(=N\OCCOc2ccc(C(=N)N)cc2)c2csc(N)n2)C(=O)N1S(=O)(=O)O` [Example 11, (2R,3S)-3-{[(2Z)-2-(2-Amino-1,3-thiazol-4-yl)-2-{[2-(4-carbamimidoylphenoxy)ethoxy]imino}acetyl]amino}-2-methyl-4-oxoazetidine-1-sulfonic acid], the MIC was 16 µg/mL (≈ 31.3 µM) in [1]; 0.125 µg/mL (≈ 0.244 µM) in the test with E. coli ATCC25922; 0.25 µg/mL (≈ 0.489 µM) with strain 20; at most 0.063 µg/mL in the test with M. morganii 126/3048; 8 µg/mL (≈ 15.6 µM) in the test with B. fragilis 6688; at most 0.063 µg/mL against E. cloacae 34654. Moreover, the MIC amounted to 0.5 µg/mL (≈ 0.977 µM) in the test on H. influenzae ATCC 49247; 1 µg/mL (≈ 1.95 µM) in the test on P. aeruginosa PAO1; 32 µg/mL (≈ 62.6 µM) against S. maltophilia ICB7569; 0.25 µg/mL (≈ 0.489 µM) against strain 21; 4 µg/mL (≈ 7.82 µM) with S. pneumoniae 113; 0.25 µg/mL (≈ 0.489 µM) in the test on E. coli J62. Further, the MIC in the test on M. catarrhalis ICB489 was 0.125 µg/mL (≈ 0.244 µM); against strain 19, 0.25 µg/mL (≈ 0.489 µM); in test [2] it was 2 µg/mL (≈ 3.91 µM); with K. pneumoniae 60 it was at most 0.125 µg/mL; with E. coli J62-TEM-3 it was 8 µg/mL (≈ 15.6 µM); in the test on A. baumannii ATCC15308, 0.5 µg/mL (≈ 0.977 µM). Also, the MIC is at most 0.125 µg/mL in the test with C. freundii K21/3034 and 0.125 µg/mL (≈ 0.244 µM) in the test on S. aureus 133.

For `C[C@H]1[C@H](NC(=O)/C(=N\OCCOc2ccc(C(=N)N)cc2Cl)c2csc(N)n2)C(=O)N1S(=O)(=O)O` [Example 20, (2S,3S)-3-{[(2Z)-2-(2-Amino-1,3-thiazol-4-yl)-2-{[2-(4-carbamimidoyl-2-chlorophenoxy)ethoxy]imino}acetyl]amino}-2-methyl-4-oxoazetidine-1-sulfonic acid], the MIC in test [1] is 32 µg/mL (≈ 58.6 µM); in the test with E. coli ATCC25922 it was 2 µg/mL (≈ 3.66 µM); against strain 20 it was 2 µg/mL (≈ 3.66 µM); against M. morganii 126/3048, 2 µg/mL (≈ 3.66 µM); with B. fragilis 6688, 16 µg/mL (≈ 29.3 µM); in the test with E. cloacae 34654 it was 2 µg/mL (≈ 3.66 µM). Also, the MIC is 0.5 µg/mL (≈ 0.916 µM) with H. influenzae ATCC 49247; 8 µg/mL (≈ 14.7 µM) with P. aeruginosa PAO1; 1 µg/mL (≈ 1.83 µM) against strain 21; 16 µg/mL (≈ 29.3 µM) in the test with S. pneumoniae 113; 2 µg/mL (≈ 3.66 µM) in the test with E. coli J62; 0.5 µg/mL (≈ 0.916 µM) against M. catarrhalis ICB489. The MIC in the test with strain 19 was 2 µg/mL (≈ 3.66 µM); in [2] it was 8 µg/mL (≈ 14.7 µM); against K. pneumoniae 60 it was 2 µg/mL (≈ 3.66 µM); in the test with E. coli J62-TEM-3, 32 µg/mL (≈ 58.6 µM); against A. baumannii ATCC15308, 2 µg/mL (≈ 3.66 µM); against C. freundii K21/3034, 1 µg/mL (≈ 1.83 µM). For the same molecule, in the test on S. aureus 133, the MIC was 0.125 µg/mL (≈ 0.229 µM).

On to `C[C@H]1[C@H](NC(=O)/C(=N\OCCOc2cnc(C(=N)N)cn2)c2csc(N)n2)C(=O)N1S(=O)(=O)O` [Example 30, (2S,3S)-3-{[(2Z)-2-(2-Amino-1,3-thiazol-4-yl)-2-({2-[(5-carbamimidoylpyrazin-2-yl)oxy]-ethoxy}imino)acetyl]amino}-2-methyl-4-oxoazetidine-1-sulfonic acid], for which the MIC in test [1] is 32 µg/mL (≈ 62.3 µM); with E. coli ATCC25922, 0.125 µg/mL (≈ 0.243 µM); in the test with strain 20, 0.25 µg/mL (≈ 0.487 µM); with M. morganii 126/3048, at most 0.063 µg/mL; in the test on B. fragilis 6688, 8 µg/mL (≈ 15.6 µM); against E. cloacae 34654 it was 0.25 µg/mL (≈ 0.487 µM). Further, the MIC with H. influenzae ATCC 49247 amounted to 0.5 µg/mL (≈ 0.974 µM); against P. aeruginosa PAO1 it was 4 µg/mL (≈ 7.79 µM); in the test on strain 21, 0.25 µg/mL (≈ 0.487 µM); in the test on S. pneumoniae 113, 4 µg/mL (≈ 7.79 µM); in the test with E. coli J62 it was 0.25 µg/mL (≈ 0.487 µM); with M. catarrhalis ICB489, 0.25 µg/mL (≈ 0.487 µM). Also, the MIC with strain 19 was 0.25 µg/mL (≈ 0.487 µM); in [2], 4 µg/mL (≈ 7.79 µM); with K. pneumoniae 60, at most 0.063 µg/mL; in the test with E. coli J62-TEM-3, 16 µg/mL (≈ 31.2 µM); in the test on A. baumannii ATCC15308 it was 1 µg/mL (≈ 1.95 µM); with C. freundii K21/3034, at most 0.063 µg/mL. In addition, the MIC with S. aureus 133 was 0.125 µg/mL (≈ 0.243 µM).

Consider `C[C@H]1[C@H](NC(=O)/C(=N\OCCOc2ccc(C(=N)N)cc2N)c2csc(N)n2)C(=O)N1S(=O)(=O)O` [Example 35, (2S,3S)-3-{[(2Z)-2-{[2-(2-Amino-4-carbamimidoylphenoxy)ethoxy]imino}-2-(2-amino-1,3-thiazol-4-yl)acetyl]amino}-2-methyl-4-oxoazetidine-1-sulfonic acid], for which the MIC in test [1] stood at 32 µg/mL (≈ 60.8 µM); in the test on E. coli ATCC25922 it was 2 µg/mL (≈ 3.8 µM); in the test with strain 20, 8 µg/mL (≈ 15.2 µM); in the test with M. morganii 126/3048, 1 µg/mL (≈ 1.9 µM); in the test with B. fragilis 6688, 16 µg/mL (≈ 30.4 µM); in the test on E. cloacae 34654, 4 µg/mL (≈ 7.6 µM). Further, the MIC in the test with H. influenzae ATCC 49247 was 1 µg/mL (≈ 1.9 µM); with P. aeruginosa PAO1, 16 µg/mL (≈ 30.4 µM); with strain 21, 4 µg/mL (≈ 7.6 µM); with S. pneumoniae 113, 32 µg/mL (≈ 60.8 µM); with E. coli J62, 4 µg/mL (≈ 7.6 µM); in the test with M. catarrhalis ICB489, 1 µg/mL (≈ 1.9 µM). Also, the MIC with strain 19 came out at 2 µg/mL (≈ 3.8 µM); in test [2], 16 µg/mL (≈ 30.4 µM); in the test with K. pneumoniae 60, 2 µg/mL (≈ 3.8 µM); in the test with E. coli J62-TEM-3, 32 µg/mL (≈ 60.8 µM); in the test with A. baumannii ATCC15308 it was 2 µg/mL (≈ 3.8 µM); against C. freundii K21/3034 it was 2 µg/mL (≈ 3.8 µM). Besides, the MIC in the test on S. aureus 133 stood at 0.25 µg/mL (≈ 0.475 µM).
